Measured values published in patent publication US10202370B2, “Benzimidazole derivatives as selective proteine kinase inhibitors” (AB SCIENCE, priority 2013, dated 2019).

Target: c-kit WT (Homo sapiens (Human), UniProt P10721)
Assay: Proliferation assay (CellTiter-Blue) on BaF3 Kit WT cell line
Assay type: cell-based
Details: BaF3 Kit WT cell line (murine Ba/F3 expressing Human Kit WT, with murine SCF), 48 hours
Protocol: Procedures of C-Kit WT Inhibition Assays:
Colorimetric cell proliferation and viability assay (reagent CellTiter-Blue purchased from Promega cat N°G8081) was performed on BaF3 Kit WT cell line.
A total of 2.10^4 cells/50 μl were seeded per well of a 96-wells plate. Treatment was initiated by addition of a 2× drug solution of ½ serial dilutions ranging from 0 to 10 μM. After incubating for 48 hours at 37° C., 10 μl of a ½ dilution of CellTiter-Blue reagent was added to each well and the plates were returned to the incubator for an additional 4 hours. The fluorescence intensity from the CellTiter-Blue reagent is proportional to the number of viable cells and data were recorded (544Ex/590Em) using a POLARstar OMEGA microplate reader (BMG LabteckSarl). A background control without cells was used as a blank. The positive control of the assay corresponds to the cell proliferation obtained in the absence of drug treatment (100% proliferation). Each sample was done in triplicate. The results were expressed as a percentage of the proliferation obtained in absence of treatment. All drugs were prepared as 20 mM stock solutions in DMSO and conserved at −80° C. Drug dilutions were made fresh in medium before each experiment. A DMSO control was included in each experiment.
The cell line expressing Human Kit WT was derived from the murine IL3-dependent Ba/F3 proB lymphoid cells. Ba/F3 Kit WT cells were maintained in RPMI medium containing 10% FCS and supplemented with 250 ng/ml of recombinant murine SCF.

Sequence of c-kit WT (P10721 26-976): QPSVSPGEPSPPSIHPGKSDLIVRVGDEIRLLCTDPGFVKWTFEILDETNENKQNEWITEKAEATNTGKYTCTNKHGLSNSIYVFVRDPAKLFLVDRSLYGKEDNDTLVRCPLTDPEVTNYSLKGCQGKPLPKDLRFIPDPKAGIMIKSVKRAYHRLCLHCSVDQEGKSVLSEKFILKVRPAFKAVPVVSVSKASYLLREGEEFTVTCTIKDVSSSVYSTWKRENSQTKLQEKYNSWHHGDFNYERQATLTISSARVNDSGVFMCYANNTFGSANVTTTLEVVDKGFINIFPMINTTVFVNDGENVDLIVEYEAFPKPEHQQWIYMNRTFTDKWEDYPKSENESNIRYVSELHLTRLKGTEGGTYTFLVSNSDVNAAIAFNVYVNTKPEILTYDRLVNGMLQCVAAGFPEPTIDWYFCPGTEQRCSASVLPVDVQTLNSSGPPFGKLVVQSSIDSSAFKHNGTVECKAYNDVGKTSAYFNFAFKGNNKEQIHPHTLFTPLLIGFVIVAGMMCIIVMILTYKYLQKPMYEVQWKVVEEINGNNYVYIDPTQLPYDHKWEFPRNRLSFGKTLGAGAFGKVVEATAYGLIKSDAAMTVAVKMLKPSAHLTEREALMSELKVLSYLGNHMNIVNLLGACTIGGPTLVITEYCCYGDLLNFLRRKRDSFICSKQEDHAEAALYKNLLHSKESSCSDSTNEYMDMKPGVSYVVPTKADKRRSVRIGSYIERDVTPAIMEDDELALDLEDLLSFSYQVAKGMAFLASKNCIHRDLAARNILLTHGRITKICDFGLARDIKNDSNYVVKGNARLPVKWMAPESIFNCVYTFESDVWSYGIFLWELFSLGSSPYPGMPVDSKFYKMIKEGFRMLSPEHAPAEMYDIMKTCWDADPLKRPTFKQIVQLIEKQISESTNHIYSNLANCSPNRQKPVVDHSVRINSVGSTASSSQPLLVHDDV

IC50 [nM] | SMILES
1000 to 10000 | Cc1cc2nc(-c3ccccc3C)[nH]c2cc1Nc1nc(-c2cccnc2)cs1 [Compound 001, (6-Methyl-2-o-tolyl-3H-benzoimidazol-5-yl)-(4-pyridin-3-yl-thiazol-2-yl)-amine]
1000 to 10000 | COc1ccc(-c2nc3cc(C)c(Nc4nc(-c5cccnc5)cs4)cc3[nH]2)cc1 [Compound 002, [2-(4-Methoxy-phenyl)-6-methyl-3H-benzoimidazol-5-yl]-(4-pyridin-3-yl-thiazol-2-yl)-amine]
≤ 1000 | Cc1cc2nc(-c3ccc(CN4CCN(C)CC4)cc3)[nH]c2cc1Nc1nc(-c2cccnc2)cs1 [Compound 003, {6-Methyl-2-[4-(4-methyl-piperazin-1-ylmethyl)-phenyl]-3H-benzoimidazol-5-yl}-(4-pyridin-3-yl-thiazol-2-yl)-amine]
1000 to 10000 | Cc1ccc(-c2nc3cc(C)c(Nc4nc(-c5cccnc5)cs4)cc3[nH]2)cc1 [Compound 004, (6-Methyl-2-p-tolyl-3H-benzoimidazol-5-yl)-(4-pyridin-3-yl-thiazol-2-yl)-amine]
≤ 1000 | Cc1cc2nc(-c3cccc(C(F)(F)F)c3)[nH]c2cc1Nc1nc(-c2cccnc2)cs1 [Compound 005, [6-Methyl-2-(3-trifluoromethyl-phenyl)-3H-benzoimidazol-5-yl]-(4-pyridin-3-yl-thiazol-2-yl)-amine]
≤ 1000 | Cc1cc2nc(-c3cccc(C#N)c3)[nH]c2cc1Nc1nc(-c2cccnc2)cs1 [Compound 010, 3-[5-Methyl-6-(4-pyridin-3-yl-thiazol-2-ylamino)-1H-benzoimidazol-2-yl]-benzonitrile]
≤ 1000 | Cc1cccc(-c2nc3cc(C)c(Nc4nc(-c5cccnc5)cs4)cc3[nH]2)c1 [Compound 011, (6-Methyl-2-m-tolyl-3H-benzoimidazol-5-yl)-(4-pyridin-3-yl-thiazol-2-yl)-amine]
1000 to 10000 | Cc1cccc(-c2nc3cc(C)c(Nc4nccc(-c5cccnc5)n4)cc3[nH]2)c1 [Compound 012, (6-Methyl-2-m-tolyl-3H-benzoimidazol-5-yl)-(4-pyridin-3-yl-pyrimidin-2-yl)-amine]

Further lines, the molecule ahead of its results:

SMILES | IC50 [nM]
Cc1cc2nc(-c3ccc(CN4CCN(C)CC4)cc3)[nH]c2cc1Nc1ncc(-c2cccnc2)o1 [Compound 006, {6-Methyl-2-[4-(4-methyl-piperazin-1-ylmethyl)-phenyl]-3H-benzoimidazol-5-yl}-(5-pyridin-3-yl-oxazol-2-yl)-amine] | 1000 to 10000
Cc1cc2nc(-c3cccc(C(F)(F)F)c3)[nH]c2cc1Nc1ncc(-c2cccnc2)o1 [Compound 007, [6-Methyl-2-(3-trifluoromethyl-phenyl)-3H-benzoimidazol-5-yl]-(5-pyridin-3-yl-oxazol-2-yl)-amine] | 1000 to 10000
Cc1cc2nc(-c3cccc(C(F)(F)F)c3)[nH]c2cc1Nc1nccc(-c2cccnc2)n1 [Compound 008] | ≤ 1000
Cc1cc2nc(-c3ccc(CN4CCN(C)CC4)cc3)[nH]c2cc1Nc1nccc(-c2cccnc2)n1 [Compound 009, {6-Methyl-2-[4-(4-methyl-piperazin-1-ylmethyl)-phenyl]-3H-benzoimidazol-5-yl}-(4-pyridin-3-yl-pyrimidin-2-yl)-amine] | 1000 to 10000
Cc1cc2nc(-c3cccc(C#N)c3)[nH]c2cc1Nc1nccc(-c2cccnc2)n1 [Compound 013, 3-[5-Methyl-6-(4-pyridin-3-yl-pyrimidin-2-ylamino)-1H-benzoimidazol-2-yl]-benzonitrile] | 1000 to 10000
Cc1cc2nc(-c3cccnc3)[nH]c2cc1Nc1nccc(-c2cccnc2)n1 [Compound 014, (6-Methyl-2-pyridin-3-yl-3H-benzoimidazol-5-yl)-(4-pyridin-3-yl-pyrimidin-2-yl)-amine] | 1000 to 10000
Cc1cc2nc(-c3cccc(N4CCN(C)CC4)c3)[nH]c2cc1Nc1nccc(-c2cccnc2)n1 [Compound 015, {6-Methyl-2-[3-(4-methyl-piperazin-1-yl)-phenyl]-3H-benzoimidazol-5-yl}-(4-pyridin-3-yl-pyrimidin-2-yl)-amine] | 1000 to 10000
